Legend:
Format in all cases: cell-based
H1975 cells = test: In vitro tumor cell proliferation assay (Cell Titer-Glo) in H1975 cells; details: NCI-H1975; H1975 human NSCLC expressing mutant HER1 (L858R,T790M); 72 hours exposure; read-out: IC50, activities in H 1975 cell lines
Method in brief: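 After 72 h compound exposure at 37° C (top 10 uM down to 64 pM, 0.1% DMSO), viability of EGFR L858R/T790M-mutant H1975 cells was read as ATP luminescence.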

N87 = test: In vitro tumor cell proliferation assay (Cell Titer-Glo) in N87 cells; details: N87 human gastric carcinoma overexpressing HER2 and HER1; 72 hours exposure; read-out: IC50, activities in N87 cell lines
Method in brief: (§1)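 Viability after 72 h drug exposure at 37 °C was read as CellTiter-Glo ATP luminescence, giving IC50. Cells (2.5×10^3/well, RPMI + 10% FBS) were compound-treated one day post-seeding, 0.1% DMSO final: A431 overexpresses HER1, N87 overexpresses HER2 and HER1.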

A431 cells = test: In vitro tumor cell proliferation assay (Cell Titer-Glo) in A431 cells; details: Homo sapiens, A-431, 72 h, A431 human epidermoid carcinoma overexpressing HER1; 72 hours exposure; read-out: IC50, activities in A431 cell lines
Method in brief: as §1

Row | SMILES | IC50 (H1975 cells) | IC50 (N87) | IC50 (A431 cells)
1 | Cc1cccc(COc2ccc(Nc3ncnc4sc5c(c34)CCN(C(=O)/C=C/CN3CCCC3)C5)cc2Cl)n1 [Example 78, N-{3-chloro-4-[(6-methylpyridin-2-yl)methoxy]phenyl}-7-[(2E)-4-pyrrolidin-1-ylbut-2-enoyl]-5,6,7,8-tetrahydropyrido [4′,3′:4,5]thieno[2,3-d]pyrimidin-4-amine] | 1000 to 10000 nM | < 200 nM | 1000 to 10000 nM
2 | O=C(/C=C/CN1CCOCC1)N1CCc2c(sc3ncnc(Nc4ccc(OCc5cnccn5)c(Cl)c4)c23)C1 [Example 80, N-[3-chloro-4-(pyrazin-2-ylmethoxy)phenyl]-7-[(2E)-4-morpholin-4-ylbut-2-enoyl]-5,6,7,8-tetrahydropyrido [4′3′:4,5]thieno[2,3-d]pyrimidin-4-amine] | 1000 to 10000 nM | < 200 nM | 1000 to 10000 nM
3 | CCN(C)C/C=C/C(=O)N1CCc2c(sc3ncnc(Nc4ccc(OCc5cnccn5)c(Cl)c4)c23)C1 [Example 81, N-[3-chloro-4-(pyrazin-2-ylmethoxy)phenyl]-7-{(2E)-4-[ethyl(methyl)amino]but-2-enoyl}-5,6,7,8-tetrahydropyrido [4′,3′:4,5]thieno[2,3-d]pyrimidin-4-amine] | 200 to 1000 nM | < 200 nM | 1000 to 10000 nM
4 | CC(C)N(C)C/C=C/C(=O)N1CCc2c(sc3ncnc(Nc4ccc(OCc5cnccn5)c(Cl)c4)c23)C1 [Example 82, N-[3-chloro-4-(pyrazin-2-ylmethoxy)phenyl]-7-{(2E)-4-[isopropyl(methyl)amino]but-2-enoyl}-5,6,7,8-tetrahydropyrido [4′3′:4,5]thieno[2,3-d]pyrimidin-4-amine] | 200 to 1000 nM | < 200 nM | 1000 to 10000 nM
5 | O=C(/C=C/CN1CCCC1)N1CCc2c(sc3ncnc(Nc4ccc(OCc5cnccn5)c(Cl)c4)c23)C1 [Example 83, N-[3-chloro-4-(pyrazin-2-ylmethoxy)phenyl]-7-[(2E)-4-pyrrolidin-1-ylbut-2-enoyl]-5,6,7,8-tetrahydropyrido [4′3′:4,5]thieno[2,3-d]pyrimidin-4-amine] | 200 to 1000 nM | < 200 nM | 1000 to 10000 nM
6 | Cc1cccc(COc2ccc(Nc3ncnc4sc5c(c34)CCN(C(=O)/C=C/CN3CCOCC3)C5)cc2Cl)n1 [Example 84, N-{3-chloro-4-[(6-methylpyridin-2-yl)methoxy]phenyl}-7-[(2E)-4-morpholin-4-ylbut-2-enoyl]-5,6,7,8-tetrahydropyrido [4′,3′:4,5]thieno[2,3-d]pyrimidin-4-amine] | 1000 to 10000 nM | < 200 nM | 1000 to 10000 nM
7 | CN(C)C/C=C/C(=O)N1CCc2c(sc3ncnc(Nc4ccc(OCc5cnccn5)c(Cl)c4)c23)C1 [Example 85, N-[3-chloro-4-(pyrazin-2-ylmethoxy)phenyl]-7-[(2E)-4-(dimethylamino)but-2-enoyl]-5,6,7,8-tetrahydropyrido [4′,3′:4,5]thieno[2,3-d]pyrimidin-4-amine] | 200 to 1000 nM | < 200 nM | 200 to 1000 nM
8 | CCN(CC)C/C=C/C(=O)N1CCc2c(sc3ncnc(Nc4ccc(OCc5cccnc5)c(Cl)c4)c23)C1 [Example 86, N-[3-chloro-4-(pyridin-3-ylmethoxy)phenyl]-7-[(2E)-4-(diethylamino)but-2-enoyl]-5,6,7,8-tetrahydropyrido [4′,3′:4,5]thieno[2,3-d]pyrimidin-4-amine] | 200 to 1000 nM | < 200 nM | 1000 to 10000 nM
9 | CN(C)C/C=C/C(=O)N1CCc2c(sc3ncnc(Nc4ccc(OCc5cccnc5)c(Cl)c4)c23)C1 [Example 87, N-[3-chloro-4-(pyridin-3-ylmethoxy)phenyl]-7-[(2E)-4-(dimethylamino)but-2-enoyl]-5,6,7,8-tetrahydropyrido [4′,3′:4,5]thieno[2,3-d]pyrimidin-4-amine] | 200 to 1000 nM | < 200 nM | 200 to 1000 nM
10 | O=C(/C=C/CN1CCCCC1)N1CCc2c(sc3ncnc(Nc4ccc(OCc5cccnc5)c(Cl)c4)c23)C1 [Example 88, N-[3-chloro-4-(pyridin-3-ylmethoxy)phenyl]-7-[(2E)-4-piperidin-1-ylbut-2-enoyl]-5,6,7,8-tetrahydropyrido [4′3′:4,5]thieno[2,3-d]pyrimidin-4-amine] | 200 to 1000 nM | < 200 nM | 1000 to 10000 nM
11 | O=C(/C=C/CN1CCOCC1)N1CCc2c(sc3ncnc(Nc4ccc(OCc5cccnc5)c(Cl)c4)c23)C1 [Example 89, N-[3-chloro-4-(pyridin-3-ylmethoxy)phenyI]-7-[(2E)-4-morpholin-4-ylbut-2-enoyl]-5,6,7,8-tetrahydropyrido [4′,3′:4,5]thieno[2,3-d]pyrimidin-4-amine] | 200 to 1000 nM | < 200 nM | 1000 to 10000 nM
12 | CCN(C)C/C=C/C(=O)N1CCc2c(sc3ncnc(Nc4ccc(OCc5cccnc5)c(Cl)c4)c23)C1 [Example 90, N-[3-chloro-4-(pyridin-3-ylmethoxy)phenyl]-7-{(2E)-4-[ethyl(methyl)amino]but-2-enoyl}-5,6,7,8-tetrahydropyrido [4′,3′:4,5]thieno[2,3-d]pyrimidin-4-amine] | 200 to 1000 nM | < 200 nM | 1000 to 10000 nM
13 | CC(C)N(C)C/C=C/C(=O)N1CCc2c(sc3ncnc(Nc4ccc(OCc5cccnc5)c(Cl)c4)c23)C1 [Example 91, N-[3-chloro-4-(pyridin-3-ylmethoxy)phenyl]-7-{(2E)-4-[isopropyl(methyl)amino]but-2-enoyl}-5,6,7,8-tetrahydropyrido [4′,3′:4,5]thieno[2,3-d]pyrimidin-4-amine] | 200 to 1000 nM | < 200 nM | 1000 to 10000 nM
14 | CN(C)C/C=C/C(=O)N1CCc2c(sc3ncnc(Nc4ccc5c(cnn5Cc5cccc(F)c5)c4)c23)C1 [Example 92, 7-[(2E)-4-(dimethylamino)but-2-enoyl]-N-[1-(3-fluorobenzyl)-1H-indazol-5-yl]-5,6,7,8-tetrahydropyrido [4′,3′:4,5]thieno[2,3-d]pyrimidin-4-amine] | < 200 nM | < 200 nM | < 200 nM
15 | CN(C)C/C=C/C(=O)N1CCc2c(sc3ncnc(Nc4ccc5c(ccn5Cc5ccccc5)c4)c23)C1 [Example 93, N-(1-benzyl-1H-indol-5-yl)-7-[(2E)-4-(dimethylamino)but-2-enoyl]-5,6,7,8-tetrahydropyrido [4′,3′:4,5]thieno[2,3-d]pyrimidin-4-amine] | < 200 nM | < 200 nM | 200 to 1000 nM
16 | CCN(CC)C/C=C/C(=O)N1CCc2c(sc3ncnc(Nc4ccc5c(ccn5Cc5ccccc5)c4)c23)C1 [Example 94, N-(1-benzyl-1H-indol-5-yl)-7-[(2E)-4-(diethylamino)but-2-enoyl]-5,6,7,8-tetrahydropyrido [4′,3′:4,5]thieno[2,3-d]pyrimidin-4-amine] | 200 to 1000 nM | < 200 nM | 200 to 1000 nM
17 | CCN(CC)C/C=C/C(=O)N1CCc2c(sc3ncnc(Nc4ccc5c(cnn5Cc5ccccc5)c4)c23)C1 [Example 95, N-(1-benzyl-1H-indazol-5-yl)-7-[(2E)-4-(diethylamino)but-2-enoyl]-5,6,7,8-tetrahydropyrido [4′,3′:4,5]thieno[2,3-d]pyrimidin-4-amine] | 200 to 1000 nM | < 200 nM | 200 to 1000 nM
18 | O=C(/C=C/CN1CCCCC1)N1CCc2c(sc3ncnc(Nc4ccc5c(ccn5Cc5ccccc5)c4)c23)C1 [Example 96, N-(1-benzyl-1H-indol-5-yl)-7-[(2E)-4-piperidin-1-ylbut-2-enoyl]-5,6,7,8-tetrahydropyrido [4′,3′:4,5]thieno[2,3-d]pyrimidin-4-amine] | 200 to 1000 nM | < 200 nM | 1000 to 10000 nM
19 | CN(C)C/C=C/C(=O)N1CCc2c(sc3ncnc(Nc4ccc5c(cnn5Cc5ccccc5)c4)c23)C1 [Example 97, N-(1-benzyl-1H-indazol-5-yl)-7-[(2E)-4-(dimethylamino)but-2-enoyl]-5,6,7,8-tetrahydropyrido [4′,3′:4,5]thieno[2,3-d]pyrimidin-4-amine] | 200 to 1000 nM | < 200 nM | 200 to 1000 nM
20 | CN(C)C/C=C/C(=O)N1CCc2c(sc3ncnc(Nc4ccc5c(ccn5Cc5cccc(F)c5)c4)c23)C1 [Example 98, 7-[(2E)-4-(dimethylamino)but-2-enoyl]-N-[1-(3-fluorobenzyl)-1H-indol-5-yl]-5,6,7,8-tetrahydropyrido [4′,3′:4,5]thieno[2,3-d]pyrimidin-4-amine] | < 200 nM | < 200 nM | 200 to 1000 nM
21 | CCN(CC)C/C=C/C(=O)N1CCc2c(sc3ncnc(Nc4ccc5c(cnn5Cc5cccc(F)c5)c4)c23)C1 [Example 99, 7-[(2E)-4-(diethylamino)but-2-enoyl]-N-[1-(3-fluorobenzyl)-1H-indazol-5-yl]5,6,7,8-tetrahydropyrido [4′,3′:4,5]thieno[2,3-d]pyrimidin-4-amine] | 200 to 1000 nM | < 200 nM | 200 to 1000 nM
22 | CCN(CC)C/C=C/C(=O)N1CCc2c(sc3ncnc(Nc4ccc5c(ccn5Cc5cccc(F)c5)c4)c23)C1 [Example 100, 7-[(2E)-4-(diethylamino)but-2-enoyl]-N-[1-(3-fluorobenzyl)-1H-indol-5-yl]-5,6,7,8-tetrahydropyrido [4′,3′:4,5]thieno[2,3-d]pyrimidin-4-amine] | 200 to 1000 nM | < 200 nM | 200 to 1000 nM
23 | O=C(/C=C/CN1CCCCC1)N1CCc2c(sc3ncnc(Nc4ccc5c(cnn5Cc5cccc(F)c5)c4)c23)C1 [Example 101] | 200 to 1000 nM | < 200 nM | 200 to 1000 nM
